The numbers were not newly measured in patent US6723737B1 (priority 1999, dated 2004), which cites them from elsewhere.

One data set relates to young men. Conditions: after caffeine ingestion, statistically significant.
For data set [1], the system named is genetically obese experimental animals.

Regarding `Cn1c(=O)c2c(ncn2C)n(C)c1=O` [caffeine, 1,3,7-trimethylxanthine], the “levels of free fatty acids” value with young men is given as “increased the levels of free fatty acids”. Further, the weight loss result in data set [1] is recorded as “did not produce weight loss”. `Cn1c(=O)c2[nH]cnc2n(C)c1=O` [theophylline, 1,3-dimethylxanthine]: the weight loss result in data set [1] is reported as “did not produce weight loss”.
